Patent US7678549B2, “Polyphenol inhibition of nucleoside diphosphate kinase-B activity and cancer metastasis” (Research Development Foundation, priority 2001, dated 2010)

Legend:
[1] = system: guinea pig thoracic aorta; experiment: Thoracic aorta in organ bath, measurement of tension; conditions: for effect on norepinephrine-contracted aorta: added at peak norepinephrine contraction, endothelium present
[2] = biological target: T1, tumor cell-secreted nucleoside diphosphate kinase-B (NDPK-B, Nm23-H2) (Homo sapiens, UniProt P22392); experiment: NDPK-B kinase activity assay (ADP to ATP with GTP as phosphoryl donor, luciferin-luciferase); format: biochemical; conditions: for Km: KM of NDPK-B for ADP in presence of the inhibitor; for Inhibition / IC50: inhibition of NDPK-B activity; for Inhibition: Yes/No, conc. tested differs per compound (0.3-10,000 μM); for inhibition of nucleoside diphosphate kinase-B activity (in words): summary of Table 1
T1 construct: Partially purified tumor cell-secreted nucleoside diphosphate kinase-B was incubated with ADP and GTP; endogenous in cells; host or cells: human tumor cell lines MDA-MB-435s, Calu-1, WiDr and PC-3; concentrated conditioned Krebs buffer
Experimental: The human tumors MDA-MB-435s (breast ductal carcinoma), Calu-1 (metastatic lung carcinoma), WiDr (colorectal carcinoma), and PC-3 (prostatic carcinoma) were grown to confluence in DMEM with 10% heat-inactivated FBS and antibiotics. Media was replaced with Krebs buffer (25 mM Hepes, pH 7.4) and incubated at 37° C. with gentle rocking for 4 hours. The supernatant was removed and concentrated by spin concentrators. Nucleoside diphosphate kinase activity of the retentate was assayed for activity and stored at −20° C.
Conversion of ADP to ATP, using GTP as the phosphoryl donor, was quantified using the Luciferin-Luciferase ATP assay as we have previously described (9). All necessary steps were taken to eliminate and account for interference between potential nucleoside diphosphate kinase-B inhibitors and the luciferase in the assay.
Partially purified tumor cell-secreted nucleoside diphosphate kinase-B was incubated with ADP and GTP in the presence of varying concentrations of putative nucleoside diphosphate kinase inhibitors or putative metastasis/angiogenesis inhibitors and the resulting ATP generated was measured by chemiluminescence using the luciferin-luciferase assay. […] Molecular modeling studies support these kinetic assumptions (data not shown).

[3] = system: Endothelial cells (CD31+ cells from guinea pig hearts); experiment: Angiogenesis assay (endothelial tube formation on EHS matrix); format: cell-based; conditions: 30 and 100 μM, ~16 hrs, endothelial tubes on EHS matrix
Experimental: Endothelial cells (CD31^+ cells from guinea pig hearts) were plated on a matrix composed of basement proteins from the Engelbreth Holm-Swarm (EHS) mouse tumor. The cells were incubated for 16 hrs in Complete Dulbecco's Modified Eagle Medium (CDMEM) with added tea catechins ellagic acid (EA), epigallocatechin gallate (EGCG), and epicatechin gallate (ECG). Bright field images were taken using a Nikon phase-contrast microscope and a Pulnix digital camera. […] Data are representative of two experiments. Fluorescence activated cell sorting (FACS) was used to select cardiac endothelial cells positive for the PECAM marker CD31. Endothelial cells were plated on a matrix of basement proteins from the Engelbreth Holm-Swarm (EHS) mouse tumor. A complete DME media containing 10% FBS was used to maintain endothelial cultures. Differentiation of the cells into endothelial tubes was monitored in the presence and absence of the compounds of interest.

[4] = system: Human endothelial cells monolayer; experiment: Tumor cell-induced paracellular holes in endothelial cell monolayers; format: cell-based; conditions: added at the same time as tumor cells
Source text: Additional studies aimed at direct analysis of the ability of polyphenolic catechin gallates to prevent breast cancer cell entry into and exit from vessels has been addressed by examining the ability of tumor cells to induce paracellular passages in endothelial cells monolayers in culture. Human endothelial cells grown to confluence in culture can be examined as a model of capillary intravasation or extravasation as in cases of human breast cancer metastasis in vivo, by examining their ability to form large (>30 μm) holes between cells (paracellular holes). […] Addition of tumor cells on top of the monolayer at concentrations of 1 cancer cell per 10,000 endothelial cells leads to the wide-spread appearance of large paracellular holes in the monolayer within 15 minutes of application of tumor cells. […] The effect is complete at 30 μM epigallocatechin gallate. Careful quantification of the presence of paracellular holes is underway using video imaging.

[5] = system: caspase-3; experiment: Caspase-3 activity in staurosporine-treated endothelial cells; format: cell-based, guinea pig; conditions: for caspase-3 activity (DEVDase): near-confluent monolayers of endothelial cells, cyclodextrin as pretreatment before staurosporine; for caspase-3 fluorescent substrate pattern in intact cells: staurosporine for 3 hours, with or without cholesterol-altering agents
Experimental: Control cells received 0.05% DMSO final as a control for drug vehicle (n=4). Clarified supernatants from detergentsolubilized cells are assayed for DEVDase activity using the colorimetric caspase-3 substrate DEVD-pnitroaniline.
The sequestration of cholesterol from the plasma membrane can disrupt the localization of proteins within caveolae and lipid rafts, which has shown to interrupt signaling pathways.
Using a fluorescent substrate, caspase-3 activity can b e visualized in intact cell preparations.

T1 sequence (P22392 whole entry): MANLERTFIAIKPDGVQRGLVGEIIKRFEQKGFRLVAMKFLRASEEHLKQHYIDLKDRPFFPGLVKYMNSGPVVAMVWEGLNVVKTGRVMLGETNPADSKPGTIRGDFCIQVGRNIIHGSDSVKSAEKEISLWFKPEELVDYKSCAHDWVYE

Inhibition [2]	inhibition of nucleoside diphosphate kinase-B activity (in words) [2]	IC50 [2] [mM]	Compound	other results
			CSc1nc(N)c2ncn([C@@H]3O[C@H](COP(=O)(O)OP(=O)(O)OP(=O)(O)O)[C@@H](O)[C@H]3O)c2n1 [2-methyl thio-ATP]	effect on norepinephrine-contracted aorta [1]: completely relaxes
Yes	relatively low potency		Nc1ncnc2c1nc(Cl)n2[C@@H]1O[C@@H]2COP(=O)(O)O[C@H]2[C@H]1O [8-Cl-cAMP]	Km [2]: 7.5 ± 1.5 µM; IC50 ([2]; value in mM): ~1 mM
No			Cc1cn([C@H]2C[C@H](N=[N+]=[N-])[C@@H](CO)O2)c(=O)[nH]c1=O [AZT]	
Yes		0.17	O=C(O[C@@H]1Cc2c(O)cc(O)cc2O[C@@H]1c1ccc(O)c(O)c1)c1cc(O)c(O)c(O)c1 [ECG, epicatechin gallate]	inhibition of angiogenesis [3]: dose-dependent inhibition of angiogenesis
Yes	inhibited	0.15	O=C(O[C@@H]1Cc2c(O)cc(O)cc2O[C@@H]1c1cc(O)c(O)c(O)c1)c1cc(O)c(O)c(O)c1 [EGCG, epigallocatechin gallate]	Km [2]: 9.7 ± 1.8 µM; inhibition of angiogenesis [3]: dose-dependent inhibition of angiogenesis; effect on norepinephrine-contracted aorta [1]: further small contraction of the vessel followed by relaxation; effect on norepinephrine-contracted aorta ([1]; listed as epigallocatechin gallate): dramatic relaxation; effect on aorta in the absence of endothelium ([1]; norepinephrine-contracted, endothelium absent): both contraction and relaxation are lost; EGCG-dependent relaxation after pretreatment with L-NAME ([1]; pretreatment with nitric oxide synthase inhibitor L-NAME): blocks epigallocatechin gallate-dependent relaxation; formation of paracellular passages (holes >30 μm) induced by tumor cells ([4]; 1 to 100 μM): prevents the formation of the paracellular passages in a dose-dependent fashion; concentration at which prevention of paracellular passages is complete [4]: 30 µM
Yes	highest inhibitory effect	0.023	O=c1oc2c(O)c(O)cc3c(=O)oc4c(O)c(O)cc1c4c23 [Ellagic Acid, hexahydroxydiphenic acid dilactone]	inhibition of angiogenesis [3]: dose-dependent inhibition of angiogenesis
Yes	relatively low potency	0.5	Nc1ncnc2c1ncn2[C@@H]1O[C@H](COP(=O)(O)OS(=O)(=O)O)[C@@H](OP(=O)(O)O)[C@H]1O [PAPS]	Km [2]: 7.1 ± 1.4 µM
Yes		0.6	O=c1c(O)cccc2cc(O)c(O)c(O)c12 [Purpurogallin]	
No			Oc1ccc(C=Cc2cc(O)cc(O)c2)cc1 [Resveratrol, resveratrol]	
			CN[C@@H]1C[C@H]2O[C@@](C)([C@@H]1OC)n1c3ccccc3c3c4c(c5c6ccccc6n2c5c31)C(=O)NC4 [Staurosporine]	caspase-3 activity (DEVDase) [5]: induce caspase-3 activity; caspase-3 fluorescent substrate pattern in intact cells [5]: punctate fluorescence
			NC[C@H](O)c1ccc(O)c(O)c1 [norepinephrine]	contraction of aorta ([1]; addition to resting vessel): contraction that is stable over time
			fillipin III	caspase-3 fluorescent substrate pattern in intact cells [5]: global diffuse fluorescence
			β methyl-cyclodextrin	caspase-3 activity (DEVDase) [5]: enhances enzymatic activity; caspase-3 fluorescent substrate pattern in intact cells [5]: global diffuse fluorescence

Compound	Inhibition [2]	inhibition of nucleoside diphosphate kinase-B activity (in words) [2]	IC50 [2] [mM]	other results
Oc1cc(O)c2c(c1)O[C@H](c1cc(O)c(O)c(O)c1)[C@H](O)C2 [EGC, epigallocatechin]	No	inhibited		
O=c1c(-c2ccc(O)cc2)coc2cc(O)cc(O)c12 [Genestein, genestein]	No			
